Reference: patent publication US20160003837A1, “BIOMARKERS FOR THE PREDICTION OF PRETERM BIRTH” (DUKE UNIVERSITY, priority 2013, published 2016)

Assays:
[1] = women with a history of spontaneous preterm birth; weekly intramuscular injection; cited from earlier work
[2] = tested on: Matrix Metalloprotease 9 (MMP-9) activity in HTR8/SVneo cells; assay: TNF-α-induced MMP-9 activity (zymography); type: cell-based; conditions: for reduction of TNFα-induced MMP-9 activity compared to stimulated controls: MPA pre-treatment
Excerpt: FIGS. 4A-4C show the effect of knocking down PGRMC1 expression on the efficacy of medroxyprogesterone acetate (MPA) pretreatment in HTR8/SVneo cells.
(§1) Progesterone treatment also blunted TNF α-mediated induction of metalloproteinase 9 (MMP-9) activity (data not shown).
The inhibitory effect of MPA pre-treatment on TNFα-induced activity was diminished when compared to cells treated with the scramble siRNA group (see FIGS. 4B&4C). […] However, in the PGRMC1 siRNA group this effect was lost with MPA pre-treatment reducing MMP-9 activity to a lesser degree when compared with stimulated controls (15%, p=0.100). Both the unstimulated (vehicle) control and the MPA groups are shown in the zymogram. The relative MMP-9 activity represents activity in excess of baseline for each experimental group. The unstimulated (vehicle) control only is represented graphically for both siRNA treatments. Experiments were replicated on 5 separate occasions. Data are mean+standard error of the mean.

[3] = women at risk based on shortened cervical length; vaginal; cited from earlier work
HTR8/Sv cells = assay: Calcimycin-induced apoptotic cell death, CELLTITER 96 Aqueous Non-Radioactive Cell Proliferation Assay; type: cell-based; conditions: pretreatment of HTR8/Sv cells; FIG. 1
Excerpt: FIGS. 1A-1B are A) Western blot and B) graph showing calcium-induced cytrotrophoblast apoptotic cell death reduction by progesterone (R5020) pretreatment.
as §1

caspase 3 cleavage = assay: Caspase 3 cleavage following treatment with calcimycin; type: cell-based; conditions: data not shown
PGRMC1 = PGRMC1 (Homo sapiens, UniProt O00264); conditions: cited from earlier work
Chain of PGRMC1 (O00264 whole entry): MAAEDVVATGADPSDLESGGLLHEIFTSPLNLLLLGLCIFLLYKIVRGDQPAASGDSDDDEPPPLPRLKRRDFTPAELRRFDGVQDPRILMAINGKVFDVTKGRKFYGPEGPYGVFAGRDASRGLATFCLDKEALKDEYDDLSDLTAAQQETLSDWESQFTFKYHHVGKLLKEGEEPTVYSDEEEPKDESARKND

## CCCCCC(=O)O[C@]1(C(C)=O)CC[C@H]2[C@@H]3CCC4=CC(=O)CC[C@]4(C)[C@H]3CC[C@@]21C [17-OHPC, 17 alpha hydroxyprogesterone caproate]
[1]
  reduction in preterm birth rates: 35%

## CC(=O)O[C@]1(C(C)=O)CC[C@H]2[C@@H]3C[C@H](C)C4=CC(=O)CC[C@]4(C)[C@H]3CC[C@@]21C [MPA, medroxyprogesterone acetate]
[2]; PGRMC1 siRNA group, p=0.100
  reduction of TNFα-induced MMP-9 activity compared to stimulated controls: 15%
[2]; scramble siRNA group, p<0.008
  reduction of TNFα-induced MMP-9 activity compared to stimulated controls: 45%

## CC(=O)[C@H]1CC[C@H]2[C@@H]3CCC4=CC(=O)CC[C@]4(C)[C@H]3CC[C@]12C [Progesterone, progesterone]
[2]; data not shown
  TNF α-mediated induction of MMP-9 activity: blunted
[3]
  reduction of the risk of preterm birth: 45%

## CCC(=O)[C@@]1(C)CC[C@H]2[C@@H]3CCC4=CC(=O)CCC4=C3CC[C@@]21C [R5020]
HTR8/Sv cells
  protection against calcium-ionophore calcimycin-induced apoptotic cell death: protected the cells
Caspase 3 cleavage
  caspase 3 cleavage following treatment with calcimycin: lower caspase 3 cleavage
PGRMC1
  binding to PGRMC1: high binding
